Experimental data reported in patent publication US20150025077A1 (COYOTE PHARMACEUTICALS, INC., priority 2012, published 2015).

Tests used:
Rap1 = test: Prenylation of Rap1 in Neuro2A cells, western blotting; assay type: cell-based, mouse; settings: 100 nM; with GGTI-298; percentage of control (GGTI only)
Procedure: Mouse neuroblastoma Neuro2A cells were cultured in DMEM supplemented with 10% FBS for 24 hrs. The cells were treated with 102GGA derivative compounds for 24 hrs first before GGTase inhibitor GGTI-298 was added to the culture medium for additional 24 hr incubation. […] Both un-prenylated and total Rap1 protein bands were quantified using Image J and normalized to their respective loading control GAPDH. The results for control and each compound treatment were calculated as the ratio of normalized un-prenylated Rap1 to total Rap1, and averaged from two biological repeats of one experiment. The final results were presented as a percentage of the control treatments (GGTI only) from the same batch experiment. The data shown in the chart were averaged from two repeats of one experiment and presented as the ratio of normalized un-prenylated Rap1 to total Rapt Compound ID numbers in table refer to structures in Table 1 and Table 2.

RhoA = test: Active RhoA to total RhoA in Neuro2A cells (G-LISA, ELISA); assay type: cell-based, mouse; settings: 48 hrs treatment, ratio of active RhoA to total RhoA as percentage of DMSO treatments, concentration not given
Procedure: Mouse neuroblastoma Neuro2A cells were cultured in DMEM supplemented with 10% FBS for 24 hrs. […] Cell lysates were quantified and subjected either to active RhoA assay using G-LISA RhoA activation Assay Biochem Kit (Cytoskeleton Inc), or to total RhoA assay using Total RhoA ELISA Kit (Cytoskeleton Inc). The results were calculated as ratio of active RhoA to total RhoA and averaged from 3 biological repeats of one experiment with background subtraction. The data was presented as percentage of DMSO treatments.

HSP70 = HSP70 levels in Neuro 2a cells, ELISA; assay type: cell-based, mouse; settings: 48 hrs compound then 24 hrs GGTI-298
Procedure: Mouse neuroblastoma 2a cells were cultured in DMEM with 10% FBS for 24 hrs. […] After 24 hrs cells were harvested and lysates were prepared and analyzed by ELISA for HSP70. Compound ID numbers in table refer to structures in Table 1 and Table 2.

Sprague Dawley rats = test: Kainic acid stereotactic hippocampus injection model, fraction of cells damaged; assay type: in vivo, rat; settings: 3 mg/kg oral; KA at 72 hours
Procedure: CNS-102 was administered orally to Sprague Dawley rats at 12 mg/kg. After dosing, KA was stereotactically injected into the hippocampus at 24, 48, 72, 96 and 168 hours to induce neuron damage. After 24 h, hippocampus tissue was collected, stained, and imaged. The scans were analyzed by Image J to calculate the fraction of cells having KA-induced damage. Average fraction damaged in the hippocampus from ten animals for each treatment (PBS vs. 12 mg/kg CNS-102) by time (24, 48, 72, 96 and 168 hours) combination was estimated with PROC MIXED in SAS. Comparisons of the CNS-102 treatment groups to the pooled PBS treatment at the different times can be made, giving the results tabulated below.
The fraction of cells damaged in the kainic acid model was determined on 130 rats, each receiving one dose of CNS-102 at either 0, 1, 3, 6, 12 or 24 mg/kg. PBS was used for dosing at 0 mg/kg. The linear model of the log10 percent damage versus concentration is graphically shown FIG. 5.
After dosing, KA was stereotactically injected into the hippocampus at 72 hours to induce neuron damage. After 24 h, hippocampus tissue was collected, stained, and imaged. The scans were analyzed by Image J to calculate the fraction of cells having KA-induced damage.
The indicated compounds or vehicle control were orally dosed to Sprague-Dawley rats, and Kainic acid was injected. After dosing, KA was stereotactically injected into the hippocampus at 72 hours to induce neuron damage. After 24 h, hippocampus tissue was collected, stained, and imaged. The scans were analyzed by Image J to calculate the fraction of cells having KA-induced damage. Neurons damaged by Kainic acid (mean of hippocampus CA3 neurons damaged) were quantified.

Sprague-Dawley rats = test: Kainic acid induced neurodegeneration and seizure behaviors in rats (Examples 20, 21); assay type: in vivo, rat; settings: oral, Kainic acid
Description: Seizure behaviors were observed and scored (Ref. R. J. Racine, Modification of seizure activity by electrical stimulation: II. Motor seizure, Electroencephalogr. Clin. […] Modifications were made for the methods). Brain tissues of rats were sectioned on histology slides, and neurons in hippocampus tissues were stained by Nissl. Neurons in dentate gyrus tissues damaged by Kainic acid were quantified. The Memantine composition used in comparison refers to a commercially available NMDA receptor […]. […] Seizure behaviors were observed and scored (Ref. R. J. Racine, Modification of seizure activity by electrical stimulation: II. Motor seizure, Electroencephalogr. Clin. […] Modifications were made for the methods). Brain tissues of rats were sectioned on histology slides, and neurons in hippocampus tissues were stained by Nissl. Neurons damaged by Kainic acid and behavior scores were quantified.

SOD1 mice = test: CatWalk gait analysis in SOD1 mice; assay type: in vivo, mouse; design: Hind stride length, Mean/average: unit not given beside the values
Description: Prior to onset, there was little to no difference between the transgenic and wildtype groups. Transgenic animals tended to rely more on front paws for movement as weakness and paralysis in the hind paws progressed. This began to show around timepoint P100, coinciding with the expected onset of disease. This impairment was seen through changes in front and hind paw step cycle, print area, mean intensity, and base of support.

| Structure (SMILES) | unprenylated/total RAP1 (%) (Rap1) | % Relative RhoGTPase Activity (RhoA) [%] | HSP70 level, ELISA signal (absence of compounds normalized as 1.00) (HSP70; 10uM) | HSP70 level, ELISA signal (absence of compounds normalized as 1.00) (HSP70; 100 nM) | other results |
| --- | --- | --- | --- | --- | --- |
| CC(C)=CCC/C(C)=C/CC/C(C)=C/CC/C(C)=C/COC(=O)Nc1ccc(C(F)(F)F)cc1 [Compound 7q, p-Trifluoromethylphenyl 2E, 6E, 10E-geranylgeranyl carbamate] | 48 | 83.5 |  |  | HSP70 level, ELISA signal (absence of compounds normalized as 1.00) (HSP70; 10 nM): 1.01 |
| CC(C)=CCC/C(C)=C/CC/C(C)=C/CC/C(C)=C/COC(=O)Nc1ccc2ccccc2c1 [Compound 7s, 2′-Naphthyl 2E, 6E, 10E-geranylgeranyl carbamate] | 89 | 86.9 | 1.10 |  |  |
| COc1ccc(NC(=O)OC/C=C(\C)CC/C=C(\C)CC/C=C(\C)CCC=C(C)C)c(OC)c1 [Compound 7w, 2′,4′-Dimethoxyphenyl 2E, 6E, 10E-geranylgeranyl carbamate] | 77 | 94.4 |  | 1.14 |  |
| CC(C)=CCC/C(C)=C/CC/C(C)=C/CC/C(C)=C/COC(=O)Nc1cc(Cl)c(Cl)c(Cl)c1 [Compound 7y, 3′,4′,5′-Trichlorophenyl 2E, 6E, 10E-geranylgeranyl carbamate] | 68 | 94.4 | 1.13 |  |  |
| CCCCCNC(=O)OC/C=C(\C)CC/C=C(\C)CCC=C(C)C [Compound 8b, n-Pentyl 2E, 6E-farnesyl carbamate] | 55 | 125.0 | 1.38 |  | Mean of Hippocampus CA3 Neurons Damaged (Sprague Dawley rats): 20% |
| CCCCNC(=S)OC/C=C(\C)CC/C=C(\C)CC/C=C(\C)CCC=C(C)C [Compound 10e, O-((2E,6E,10E)-3,7,11,15-tetramethylhexadeca-2,6,10,14-tetraen-1-yl) butylcarbamothioate] | 56 | 89.7 |  | 1.09 |  |
| CC(C)=CCC/C(C)=C/CC/C(C)=C/CC/C(C)=C/c1nnc(-c2ccc(C)cc2)o1 [Compound 29b, 2-((1E,5E,9E)-2,6,10,14-tetramethylpentadeca-1,5,9,13-tetraen-1-yl)-5-(p-tolyl)-1,3,4-oxadiazole] | 49 | 96.1 | 1.17 | 1.11 |  |
| CCOC(=O)C(C/C=C(\C)CC/C=C(\C)CC/C=C(\C)CC/C=C(\C)CCC=C(C)C)C(C)=O (stereo not shown) [Compound 135] | 50 | 93.2 | 1.07 |  |  |
| CC12CC3CC(C)(C1)CC(N)(C3)C2 [Memantine, reference compound] |  |  |  |  | Hippocampus dentate gyrus neurons damaged (Sprague-Dawley rats; vehicle 20.9): 3.53 Arbitrary units; Seizure behaviors scores (Sprague-Dawley rats; vehicle 34): 36.2 |
| Nc1nc2ccc(OC(F)(F)F)cc2s1 [Riluzole, reference compound] |  |  |  |  | Run Duration, Mean/average (SOD1 mice; P-42, SOD1/Vehicle 1.484746201): 1.65; Hind stride length, Mean/average (SOD1 mice; P-42, SOD1/Vehicle 6.359471205): 6.337; Swing speed, Mean/average (SOD1 mice; P-42, SOD1/Vehicle 45.8515272): 43.07; Run Duration, Mean/average (SOD1 mice; P-124 (+/−) 3, SOD1/Vehicle 3.461605345): 3.113; Hind stride length, Mean/average (SOD1 mice; P-124 (+/−) 3, SOD1/Vehicle 3.607909383): 4.244; Swing speed, Mean/average (SOD1 mice; P-124 (+/−) 3, SOD1/Vehicle 23.93413455): 29.71 |
